Experimental data from US6861443B2, “Positive modulators of nicotinic receptors” (Astra AB, priority 1998, dated 2005).
Read-outs that look alike come from different tables or passages of the source.

Key:
nAChR α7 = nAChR α7 (Homo sapiens, UniProt P36544); settings: FIG. 6
Description: To screen for α7 modulatory activity, the 96 well plate is placed in a fluorescence imaging plate reader (FLIPR) and test compounds along with an α7 agonist are applied simultaneously to all wells. Receptor activation is measured by calcium influx into cells which is quantified by the increase in fluorescence intensity of each well, recorded simultaneously by the FLIPR. A modulatory effect is determined by the increase in fluorescence over that of agonist alone. Similarly, to test for nAChR α7 agonist activity, test compounds along with an α7 modulator are applied simultaneously to all wells. Receptor activation is measured by calcium influx into cells which is quantified by the increase in fluorescence intensity of each well, recorded simultaneously by the FLIPR. An agonist effect is determined by the increase in fluorescence over that of modulator alone.
Effect of nAChR α7 modulator on agonist activity was measured by Ca^2+ flux through nAChR α7 expressed in HEK-293 cells. The nicotinic agonist (−)-Spiro[1-Azabicyclo[2.2.2.]Octane-3,5*-Oxazolidine]-2*-One, was used.

5-HT3 receptors = settings: unpublished results / in press; cited from earlier work
α7-nicotinic receptor = assay: Two-electrode voltage-clamp current recording from Xenopus oocytes expressing α7-nicotinic receptors; type: cell-based, human, rat and chick
Description: (a) Xenopus Oocyte Current Recording
The Xenopus oocyte has provided a powerful means of assessing the function of proteins thought to be subunits of ligand-gated ion-channels.
Consequently, one convenient technique to assess the enhancement of nicotinic efficacy is two-electrode voltage-clamp recording from Xenopus oocytes expressing α7-nicotinic receptors from cRNA.
Oocytes were removed to OR2 solution (82 mM NaCl, 2.5 mM KCl, 5 mM HEPES, 1.5 mM NaH2PO4, 1 mM MgCl2, 0.1 mM EDTA; pH 7.4). The oocytes were defolliculated by incubation in 25 ml OR2 containing 0.2% collagenase 1A (Sigma) two times for 60 min on a platform vibrating at 1 Hz and stored in Leibovitz's L-15 medium (50 μg/ml gentomycin, 10 Units/ml penicillin, and 10 μg/ml streptomycin). Approximately 50 ng of cRNA was injected in each oocyte the following day. cRNA was synthesised from cDNA using Message Machine (purchased from Abion).
The external recording solution consisted of 90 mM NaCl, 1 mM KCl, 1 mM MgCl2, 1 mM BaCl2, 5 mM HEPES; pH 7.4. […] Oocytes were impaled with two electrodes of 1-2 MΩ tip resistance when filled with 3M KCl. Recordings were begun when membrane potential became stable at potentials negative to −20 mV (resting membrane potentials are less negative when Ba^++ replaces Ca^++ in bathing solutions). Membrane potential was clamped at −80 mV.
Current amplitude was measured from baseline to peak. EC50 values, maximal effect, and Hill slopes were estimated by fitting the data to the logistic equation using GraphPad Prism (GraphPad Software, Inc., San Diego, Calif.).
Increases in agonist efficacy elicited by a positive modulator can be calculated in two ways: • (1) As percent potentiation of current amplitude which is defined as 100(Im−Ic)/Ic where Im is current amplitude in the presence of modulator and Ic is current in the absence of modulator (FIG. 1). • (2) As percent potentiation of “area under curve” of an agonist trace. Area under the curve is a common representation of the total ion flux through the channel (FIG. 2).

[1] = molecular target: mouse muscle-type nicotinic receptors (Mus musculus, UniProt P02716+P04756+P09690); assay: Efficacy enhancement on other nicotinic receptors; type: cell-based
Sequence of mouse muscle-type nicotinic receptors (P04756 21-457): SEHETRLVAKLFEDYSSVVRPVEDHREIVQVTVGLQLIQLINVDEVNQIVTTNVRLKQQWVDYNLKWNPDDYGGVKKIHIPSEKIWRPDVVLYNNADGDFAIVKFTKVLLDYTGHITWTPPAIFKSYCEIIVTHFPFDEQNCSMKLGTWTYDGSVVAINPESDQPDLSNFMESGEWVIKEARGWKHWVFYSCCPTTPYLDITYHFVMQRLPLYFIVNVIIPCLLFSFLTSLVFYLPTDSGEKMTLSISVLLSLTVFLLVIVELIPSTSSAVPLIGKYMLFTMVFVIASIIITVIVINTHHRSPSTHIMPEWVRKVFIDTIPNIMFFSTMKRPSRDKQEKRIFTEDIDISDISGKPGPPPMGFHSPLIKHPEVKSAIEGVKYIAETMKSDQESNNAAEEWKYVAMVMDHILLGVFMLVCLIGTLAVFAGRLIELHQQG
Sequence of mouse muscle-type nicotinic receptors (P09690 24-501): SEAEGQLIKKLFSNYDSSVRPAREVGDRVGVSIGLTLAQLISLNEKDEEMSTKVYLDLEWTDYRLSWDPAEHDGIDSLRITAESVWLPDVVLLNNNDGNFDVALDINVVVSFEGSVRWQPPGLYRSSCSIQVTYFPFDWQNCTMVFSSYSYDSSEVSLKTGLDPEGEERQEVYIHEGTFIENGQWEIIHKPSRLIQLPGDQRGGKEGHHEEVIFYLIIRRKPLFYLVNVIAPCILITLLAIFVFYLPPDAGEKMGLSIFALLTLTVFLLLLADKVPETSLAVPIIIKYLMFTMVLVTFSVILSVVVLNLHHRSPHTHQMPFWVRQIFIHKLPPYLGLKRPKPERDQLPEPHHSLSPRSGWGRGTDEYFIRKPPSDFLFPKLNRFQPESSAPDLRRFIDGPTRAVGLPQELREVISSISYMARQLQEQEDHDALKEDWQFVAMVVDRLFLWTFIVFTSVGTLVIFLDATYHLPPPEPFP
Sequence of mouse muscle-type nicotinic receptors (P02716 25-520): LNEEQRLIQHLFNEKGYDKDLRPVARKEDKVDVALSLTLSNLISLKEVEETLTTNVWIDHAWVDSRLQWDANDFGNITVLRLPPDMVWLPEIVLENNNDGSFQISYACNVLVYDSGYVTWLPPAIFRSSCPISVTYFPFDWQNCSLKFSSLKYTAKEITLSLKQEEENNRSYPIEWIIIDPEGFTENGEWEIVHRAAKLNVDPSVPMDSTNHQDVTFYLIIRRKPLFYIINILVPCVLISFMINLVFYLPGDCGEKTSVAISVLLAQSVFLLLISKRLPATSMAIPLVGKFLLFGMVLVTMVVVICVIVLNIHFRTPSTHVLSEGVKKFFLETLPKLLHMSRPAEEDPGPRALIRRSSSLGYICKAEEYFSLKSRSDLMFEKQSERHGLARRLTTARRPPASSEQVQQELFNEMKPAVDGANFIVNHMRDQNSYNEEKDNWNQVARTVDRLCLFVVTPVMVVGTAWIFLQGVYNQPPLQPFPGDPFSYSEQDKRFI

Sequence of nAChR α7 (P36544 23-502): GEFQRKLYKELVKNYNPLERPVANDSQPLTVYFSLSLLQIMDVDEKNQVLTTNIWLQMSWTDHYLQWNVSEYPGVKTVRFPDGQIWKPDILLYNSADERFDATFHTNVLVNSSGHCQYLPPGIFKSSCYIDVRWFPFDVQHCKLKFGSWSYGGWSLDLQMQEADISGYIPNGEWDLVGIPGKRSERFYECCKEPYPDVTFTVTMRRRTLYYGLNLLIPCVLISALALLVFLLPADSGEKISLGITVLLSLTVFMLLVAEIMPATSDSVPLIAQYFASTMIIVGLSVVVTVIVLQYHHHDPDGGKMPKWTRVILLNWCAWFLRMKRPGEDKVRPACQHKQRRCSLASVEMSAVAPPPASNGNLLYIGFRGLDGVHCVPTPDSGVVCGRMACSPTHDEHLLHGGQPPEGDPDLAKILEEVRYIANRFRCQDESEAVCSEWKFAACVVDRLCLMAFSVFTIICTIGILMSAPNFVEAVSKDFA

Compound: O=C1NCC2(CN3CCC2CC3)O1 (single isomer, unassigned; (-))
- agonist activity as Ca2+ flux signal, agonist alone (nAChR α7; no modulator): No discernible signal
- agonist activity as Ca2+ flux signal, agonist together with modulator (nAChR α7; with nAChR α7 modulator): significant increase in agonist activity

Compound: NS(=O)(=O)c1cc2c(cc1Cl)NC(C1CC3C=CC1C3)NS2(=O)=O (stereo not drawn) [cyclothiazide]
- effect on 5-HT3 receptors (5-HT3 receptors): block 5-HT3 receptors

Compound: NCCc1c[nH]c2ccc(O)cc12 [serotonin]
- positive modulation on ACh activity (efficacy enhancing activity) (α7-nicotinic receptor): did not increase efficacy
- positive modulation on ACh activity (efficacy enhancing activity) (α7-nicotinic receptor; listed as 5-HT): unable to reproduce the finding that 5-HT increases activity

Compound: NCC(=O)O [Glycine]
- effect on 5-HT3 receptors (5-HT3 receptors): no effect

Compound: Oc1ccc2[nH]ccc2c1 [5-hydroxyindole]
- increase in area under the curve (α7-nicotinic receptor; 0.5 mM 5-OHi, saturating agonist (3 mM ACh), 1 second agonist application, FIG. 4): ~400%
- increase of maximal response to ACh (maximum amplitude) (α7-nicotinic receptor; 5-hydroxyindole 500 μM against a range of ACh concentrations, FIG. 3): 2 fold
- increase in efficacy of agonists at nicotinic receptors (α7-nicotinic receptor; general statement): greater than 2 fold
- increase in efficacy of various nicotinic agonists afforded by 5-hydroxyindole (α7-nicotinic receptor; modulator 1 mM 5-OHi, ACh 3 mM, AR-R 17779 100 μM, FIG. 5): seen with all nicotinic agonists tested
- current induced when applied by itself (α7-nicotinic receptor; no agonist, oocytes injected with cRNA for α7 nicotinic receptors): did not induce current
- increase in efficacy on other nicotinic receptors [1]: not seen on any other nicotinic receptors
